According to patent US8980846B2, “Composition containing styraxlignolide A or the aglycone thereof as an active ingredient for preventing or treating asthma” (Korea Research Institute of Bioscience and Biotechnology, priority 2010, dated 2015):
Where two headings read alike, the source gives them in different places.

Tests used:
IL-17 = IL-17 in bronchoalveolar lavage fluid; type: in vivo, Balb/c female mice; conditions: asthma-induced mice, homoegonol study; 30 mg/kg PO
Procedure: (§1) To prepare bronchial asthma-induced experimental animals, six-week-old Balb/c female mice of mean weight about 20 g were used. After one week of adaptation, individuals which had no observed abnormality on a basic physical examination were targeted. 200 μL of phosphate buffered saline (PBS)(pH 7.4) in which 2 mg of aluminum hydroxide (A8222, Sigma, St. Louis, Mo.) and 20 μg of ovalbumin (A5503, Sigma, St. Louis, Mo.) were suspended was injected into the peritoneal cavity at two-week intervals to result in sensitization. On days 28 to 30 after the first intraperitoneal administration of ovalbumin, inhalation challenge was performed for 30 min with 1% ovalbumin using an ultrasonic atomizer. 24 hours after the last antigen administration, airway hyperresponsiveness was measured. After 24 hours, a lethal dose of pentobarbital (Entobar®, Hanlim Pharm Co., Ltd.) was administered, body weight measurement and bronchotomy were performed, and bronchoalveolar lavage was performed with a total 1.2 mL of physiological saline, and then, samples were collected. […] Eight white mice were used for each group. Experimental groups for homoegonol were a group (hE7.5) in which animals were orally administered with 7.5 mg/kg homoegonol 1 hour prior to ovalbumin inhalation, a group (hE15) in which animals were orally administered with 15 mg/kg homoegonol 1 hour prior to ovalbumin inhalation, and a group (hE30) in which animals were orally administered with 30 mg/kg homoegonol 1 hour prior to ovalbumin inhalation, and five white mice were used for each group.
(§2) To examine the effect of homoegonol on airway remodeling, generation of TGF-β1 and IL-17 in bronchoalveolar lavage fluid was measured.

[1] = test system: alanine aminotransferase (ALT) and aspartate aminotransferase (AST) in serum; type: in vivo
Procedure: as §1
To examine liver toxicity of styraxlignolide A, a commercially available ELISA kit (BECKMAN Coulter, Inc., Fullerton, Calif., USA) was used to measure alanine aminotransferase (ALT) and aspartate aminotransferase (AST) in serum.

ovalbumin-specific IgE = experiment: IgE levels in serum and bronchoalveolar lavage fluid (ELISA); type: in vivo, Balb/c female mice; conditions: asthma-induced mice
Procedure: as §1
To measure serum and bronchoalveolar lavage fluid ovalbumin-specific IgE levels caused by administration of styraxlignolide A, an immunoenzyme technique was used. 20 μg/mL of ovalbumin was dissolved in a 0.1 M NAHCO3 buffer (pH 8.3), and was placed into a 96-well flat bottom ELISA plate to be coated at 4° C. overnight. Non-specific binding was blocked with PBS containing 1% bovine serum albumin, and a serum sample was diluted 1:400 and was allowed to react at room temperature for 2 hours. Then, the plate was washed well, and anti-mouse IgE monoclonal antibody was diluted 1:300 and was allowed to react for 2 hours. Then, HRP-conjugated goat anti-rat IgG polyclonal antibody which was coupled to peroxidase was diluted 1:4000 and was allowed to react at room temperature for 1 hour, and then, was washed. For color development, 3,3′,5,5′-tetramethylbezidine substrate was allowed to react, and the spectroscopic absorbance was measured at 650 nm.
To measure IgE levels which are correlated with severity of asthma to examine the effect of homoegonol on asthma, IgE levels in serum and bronchoalveolar lavage fluid were measured according to the method in <Experimental Example 4>.

[2] = test system: airway hyperresponsiveness; experiment: Airway hyperresponsiveness, Penh by one chamber plethysmography after methacholine inhalation; type: in vivo, Balb/c female mice; conditions: asthma-induced mice; for Penh values: homoegonol study, 30 mg/kg PO
Procedure: as §1, with “Experimental groups for homoegonol were a group (hE7.5) in which animals were orally administered with 7.5 mg/kg homoegonol 1 hour prior to ovalbumin inhalation, a group (hE15) in which animals were orally administered with 15 mg/kg homoegonol 1 hour prior to ovalbumin inhalation, and a group (hE30) in which animals were orally administered with 30 mg/kg homoegonol 1 hour prior to ovalbumin inhalation, and five white mice were used for each group.” left out
The effect of styraxlignolide A on airway hyperresponsiveness caused by asthma occurrence was examined by measuring airway resistance with one chamber plethysmography (All medicus, Seoul, Republic of Korea) and degree of airway resistance was assessed by measuring Penh (enhanced pause) values. The baseline value was measured under a normal respiratory condition, and then, PBS was inhaled using an ultrasonic atomizer for 3 min, and Penh values were measured over 3 min. […] Louis, Mo.) which is used in general methods for diagnosis of bronchial asthma were inhaled and Penh values were measured. Penh value is shown in the following Equation 1, and the resulting Penh value was expressed as a percent increase in Penh after inhalation of each concentration of methacholine. The baseline Penh (saline challenge) was expressed as 100%.
Te: expiratory time (sec), the time from inspiration to the next inspiration
RT: relaxation time, the elapsed time between the beginning of the expiration and the moment when the remaining 30% of the tidal volume has been reached during expiration
PEF: Peak expiration flow
PIF: Peak inspiration flow
To examine the effect of homoegonol on airway hyperresponsiveness caused by asthma occurrence, Penh value was measured according to the method in <Experimental Example 2>.

TGF-β1 = TGF-β1 in bronchoalveolar lavage fluid; type: in vivo, Balb/c female mice; conditions: asthma-induced mice, homoegonol study; 30 mg/kg PO
Procedure: as §1, §2

goblet cells = experiment: Ratio of goblet cells to bronchial epithelial cells (PAS staining); type: in vivo, Balb/c female mice; conditions: asthma-induced mice
Procedure: as §1
Lungs removed from each individual were subjected to conventional formalin fixation and paraffin embedding, and permanent section slides of 4 μm thickness were prepared, and periodic acid Schiff (PAS) staining was performed to determine goblet cells. Proliferation of goblet cells was assessed by measuring the ratio of goblet cells to bronchial epithelial cells.
In accordance with the method in <Experimental Example 7-2>, the ratio of goblet cells which were determined by periodic acid-Schiff staining to bronchial epithelial cells were measured to assess proliferation of goblet cells.

[3] = Body weight in asthma-induced mice; type: in vivo, Balb/c female mice
Procedure: as §1
To determine an effect of styraxlignolide A on reduction in body weight in asthma-induced mice, body weight of each mouse prepared in Example 2 was measured. For statistical analyses for all measurements, means and standard errors (mean±S.E.) according to a number of variables were calculated, and comparison between each group was analyzed by performing a Mann-whitney U test using SPSS 10.0. Statically significance was accepted at p<0.05.
To determine an effect of homoegonol on reduction in body weight in asthma-induced mice, body weight of each mouse prepared in Example 2 was measured. For statistical analyses for all measurements, means and standard errors (mean±S.E.) according to a number of variables were calculated, and comparison between each group was analyzed by performing a Mann-whitney U test using SPSS 10.0. Statically significance was accepted at p<0.05.

[4] = test system: inflammatory cells in bronchoalveolar lavage fluid; experiment: Inflammatory cell counts in bronchoalveolar lavage fluid (Diff-Quick staining); type: in vivo, Balb/c female mice; conditions: asthma-induced mice
Procedure: as §1
Bronchoalveolar lavage fluid was collected from individuals of each experimental group in <Example 2> and right after the collection, fluid was stained with trypan blue. The number of total cells except dead cells was calculated using a hemocytometer. Then, Diff-Quick staining (Sysmex, Swizerland) was performed after smear preparation with Cytospin II, and eosinophils and other inflammatory cells were differentially counted.
To examine the effect of homoegonol on asthma, variation in the numbers of asthma-related inflammatory cells was measured according to the method in <Experimental Example 3>.

[5] = test system: inflammatory cells in bronchoalveolar lavage fluid; experiment: as above; type: in vivo, Balb/c female mice; conditions: asthma-induced mice, styraxlignolide A study
[6] = test system: fibrosis in subsegmental bronchi; experiment: Fibrosis in subsegmental bronchi (Masson's trichrome staining); type: in vivo, Balb/c female mice; conditions: asthma-induced mice, styraxlignolide A study; 1 hour prior to ovalbumin inhalation
Procedure: as §1

[7] = test system: inflammatory cells in the airway mucosa; experiment: Inflammatory cell infiltration in airway mucosa, inflammatory index (H&E staining); type: in vivo, Balb/c female mice; conditions: asthma-induced mice, styraxlignolide A study; 30 mg/kg PO 1 hour prior to ovalbumin inhalation; scale 0-4
reactive oxygen species = experiment: Reactive oxygen species generation in bronchoalveolar lavage fluid (2,7-dichlorofluorescein diacetate); type: in vivo, Balb/c female mice; set-up: dose or concentration left out as unconfirmed; conditions: asthma-induced mice, styraxlignolide A study, 1 hour prior to ovalbumin inhalation
Procedure: To prepare bronchial asthma-induced experimental animals, six-week-old Balb/c female mice of mean weight about 20 g were used. After one week of adaptation, individuals which had no observed abnormality on a basic physical examination were targeted. 200 μL of phosphate buffered saline (PBS)(pH 7.4) in which 2 mg of aluminum hydroxide (A8222, Sigma, St. Louis, Mo.) and 20 μg of ovalbumin (A5503, Sigma, St. Louis, Mo.) were suspended was injected into the peritoneal cavity at two-week intervals to result in sensitization. On days 28 to 30 after the first intraperitoneal administration of ovalbumin, inhalation challenge was performed for 30 min with 1% ovalbumin using an ultrasonic atomizer. 24 hours after the last antigen administration, airway hyperresponsiveness was measured. […]
To measure the amount of generated reactive oxygen species caused by administration of styraxlignolide A, some bronchoalveolar lavage fluid of each individual in <Example 2> was washed with PBS, and 10 μM 2,7-dichlorofluorescein diacetate (35845, Sigma, St. Louis, Mo.) was added thereto and bronchoalveolar lavage fluid was allowed to stand still in a room temperature dark room for 10 min, and the amount of generated reactive oxygen species was measured by a spectrofluorometer (Ex=480 nm, Em=522 nm).

[8] = homoegonol study, 30 mg/kg PO, bronchoalveolar lavage fluid
[9] = styraxlignolide A study, 30 mg/kg PO 1 hour prior to ovalbumin inhalation
[10] = homoegonol study, 30 mg/kg PO, bronchoalveolar lavage fluid, 30 mg/kg
[11] = asthma-induced mice, styraxlignolide A study, 30 mg/mL PO 1 hour prior to ovalbumin inhalation

CC(C)(O)c1ccccc1CC[C@@H](SCC1(CC(=O)O)CC1)c1cccc(/C=C/c2ccc3ccc(Cl)cc3n2)c1 [Monte, montelukast, reference compound]
IL-17 concentrations in bronchoalveolar lavage fluid (IL-17): 15.8409 ± 2.5686 pg/mL
serum ALT ([1]; mouse, in vivo, po, 30 mg/kg): 122.50±14.94 IU/L
serum AST ([1]; mouse, in vivo, po, 30 mg/kg): 205.00±27.17 IU/L
Total IgE level in bronchoalveolar lavage fluid (ovalbumin-specific IgE; [8]): 104.7447 ± 9.7295 ng/mL
Total serum IgE level (ovalbumin-specific IgE; homoegonol study, 30 mg/kg PO, serum, Table 2): 16.22 ± 2.6329 µg/mL
Penh values ([2]; methacholine 0 mg/ml): 0.6071 ± 0.0618
Penh values ([2]; methacholine 12.5 mg/ml): 1.2979 ± 0.1537
Penh values ([2]; methacholine 25 mg/ml): 1.4748 ± 0.1639
Penh values ([2]; methacholine 50 mg/ml): 2.3069 ± 0.4225
TGF-β1 concentrations in bronchoalveolar lavage fluid (TGF-β1): 215.9375 ± 13.4334 pg/mL
Goblet cells %/bronchial epithelial cell unit (goblet cells; homoegonol study, 30 mg/kg PO, 30 mg/kg): 34.6476±11.5492%
body weight ([3]; homoegonol study, 30 mg/kg PO 1 hour prior to ovalbumin inhalation): 21.08 ± 0.57 g
body weight [3, 9]: 21.04 ± 0.30 g
Number of cells, Other inflammatory cells [4, 8]: 48.84 ± 3.7377 ×10^3 cells/mouse
Number of cells, Eosinophils [4, 10]: 19.12±9.17 ×10^3 cells/mouse
Number of cells, Total inflammatory cells [4, 10]: 67.96±15.0532 ×10^3 cells/mouse
numbers of total inflammatory cells in bronchoalveolar lavage fluid [4, 9]: 193.29±19.99
numbers of eosinophils in bronchoalveolar lavage fluid ([5]; 30 mg/kg PO 1 hour prior to ovalbumin inhalation): 60.67±6.58

COc1ccc(-c2cc3cc(CCCO[C@@H]4OC(CO[C@@H]5OC[C@@H](O)C(O)C5O)[C@@H](O)C(O)C4O)cc(OC)c3o2)cc1OC (stereo partly drawn) [styraxlignolide A]
serum ALT [1, 11]: 168.67±15.56 IU/L
serum AST [1, 11]: 245.33±12.87 IU/L
Ovalbumin-specific IgE level in bronchoalveolar lavage fluid (ovalbumin-specific IgE; styraxlignolide A study, 1 hour prior to ovalbumin inhalation, bronchoalveolar lavage fluid): 15.4 ± 2.18 ng/mL
serum ovalbumin-specific IgE level (ovalbumin-specific IgE; styraxlignolide A study, 1 hour prior to ovalbumin inhalation, serum, difference to asthma-induced group not significant): 382 ± 60.60 ng/mL
area of a fibrosis stained region per 100 μm of a basement membrane perimeter [6]: 495.69±98.62 μm^2
peribronchiolar inflammatory index [7]: 1.17±0.2
Penh (enhanced pause) values compared to the comparative groups ([2]; styraxlignolide A study, 30 mg/mL PO 1 hour prior to ovalbumin inhalation, methacholine 12.5, 25, or 50 mg/mL): reduced Penh values compared to the comparative groups
generated amount of reactive oxygen species, reduction compared to the asthma-induced group (reactive oxygen species): 27.90%
ratio of goblet cells to bronchiolar epithelial cells (goblet cells; styraxlignolide A study, 1 hour prior to ovalbumin inhalation): 29.52±8.02%
body weight ([3]; styraxlignolide A study, 30 mg/mL PO 1 hour prior to ovalbumin inhalation): 21.04 ± 0.34 g
numbers of eosinophils in bronchoalveolar lavage fluid ([5]; 30 mg/mL PO 1 hour prior to ovalbumin inhalation): 20.77±2.34
numbers of total inflammatory cells in bronchoalveolar lavage fluid ([5]; 1 hour prior to ovalbumin inhalation): 147.83±12.61
